Test results published in ChEMBL document CHEMBL2396555, “Synthesis and acrosin inhibitory activities of 5-phenyl-1H-pyrazole-3-carboxylic acid amide derivatives” (Bioorg Med Chem Lett, 2013).

The molecules below were run against Acrosin (Homo sapiens, UniProt P10323) (assay: Inhibition of human sperm acrosin using BAPNA as substrate after 3 hrs by spectrophotometric analysis).
Acrosin, sequence (P10323 20-42 limits assumed): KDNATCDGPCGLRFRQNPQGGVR
Acrosin, sequence (P10323 43-343 limits assumed): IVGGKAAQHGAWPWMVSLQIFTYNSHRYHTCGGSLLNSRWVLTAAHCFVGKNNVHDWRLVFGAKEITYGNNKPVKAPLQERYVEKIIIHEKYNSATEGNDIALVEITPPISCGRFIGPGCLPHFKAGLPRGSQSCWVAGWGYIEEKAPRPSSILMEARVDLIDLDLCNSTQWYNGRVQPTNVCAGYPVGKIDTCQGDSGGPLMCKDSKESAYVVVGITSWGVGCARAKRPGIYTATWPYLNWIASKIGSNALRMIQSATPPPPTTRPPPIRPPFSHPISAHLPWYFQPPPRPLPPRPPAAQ

Q: For O=Cc1cc(-c2ccc(Cl)cc2Cl)on1, which IC50 is on record?
A: 0.39 mM

Q: COc1ccc(-c2cc(C(=O)N(C)CCO)n[nH]2)cc1 was tested. Which IC50 did it give?
A: 0.41 mM

Q: With COc1ccc(-c2cc(C(=O)NCCOCCO)n[nH]2)cc1 as the molecule, how does the IC50 read?
A: 6.02 mM

Q: O=C(NCCO)c1cc(-c2ccc([N+](=O)[O-])cc2)[nH]n1 was tested. Which IC50 did it give?
A: 2.7 mM

Q: O=C(c1cc(-c2ccc([N+](=O)[O-])cc2)[nH]n1)N(CCO)CCO was tested. Which IC50 did it give?
A: 5.6 mM

Q: How did the IC50 turn out when O=C(NCCCO)c1cc(-c2ccc([N+](=O)[O-])cc2)[nH]n1 was run?
A: 3.07 mM

Q: With CC(O)CNC(=O)c1cc(-c2ccc([N+](=O)[O-])cc2)[nH]n1 (stereo not drawn) as the molecule, how does the IC50 read?
A: 2.95 mM

Q: For CC(O)CN(CC(C)O)C(=O)c1cc(-c2ccc([N+](=O)[O-])cc2)[nH]n1 (stereo not drawn), which IC50 is on record?
A: 1.21 mM

Q: CN(CCO)C(=O)c1cc(-c2ccc([N+](=O)[O-])cc2)[nH]n1 was tested. Which IC50 did it give?
A: 2 mM

Q: Which IC50 does the source give for CC(C)(CO)NC(=O)c1cc(-c2ccc([N+](=O)[O-])cc2)[nH]n1 here?
A: 1.875 mM

Q: With O=C(NCCOCCO)c1cc(-c2ccc([N+](=O)[O-])cc2)[nH]n1 as the molecule, how does the IC50 read?
A: 2.07 mM

Q: How did the IC50 turn out when O=C(NC(CO)(CO)CO)c1cc(-c2ccc([N+](=O)[O-])cc2)[nH]n1 was run?
A: 5.22 mM

Q: Which IC50 does the source give for O=C(NCCO)c1cc(-c2cccc([N+](=O)[O-])c2)[nH]n1 here?
A: 0.76 mM

Q: Which IC50 does the source give for O=C(c1cc(-c2cccc([N+](=O)[O-])c2)[nH]n1)N(CCO)CCO here?
A: 2.4 mM

Q: O=C(NCCCO)c1cc(-c2cccc([N+](=O)[O-])c2)[nH]n1 was tested. Which IC50 did it give?
A: 0.78 mM

Q: How did the IC50 turn out when CC(O)CNC(=O)c1cc(-c2cccc([N+](=O)[O-])c2)[nH]n1 (stereo not drawn) was run?
A: 1.83 mM

Q: For CN(CCO)C(=O)c1cc(-c2cccc([N+](=O)[O-])c2)[nH]n1, which IC50 is on record?
A: 0.79 mM

Q: How did the IC50 turn out when O=C(NCCOCCO)c1cc(-c2cccc([N+](=O)[O-])c2)[nH]n1 was run?
A: 9.1 mM

Q: How did the IC50 turn out when O=C(NC(CO)(CO)CO)c1cc(-c2cccc([N+](=O)[O-])c2)[nH]n1 was run?
A: 0.76 mM

Q: Which IC50 does the source give for O=C(NCCO)c1cc(-c2ccc(Br)cc2)[nH]n1 here?
A: 0.53 mM

Q: For O=C(c1cc(-c2ccc(Br)cc2)[nH]n1)N(CCO)CCO, which IC50 is on record?
A: 1.52 mM

Q: How did the IC50 turn out when O=C(NCCCO)c1cc(-c2ccc(Br)cc2)[nH]n1 was run?
A: 0.38 mM

Q: How did the IC50 turn out when CC(O)CNC(=O)c1cc(-c2ccc(Br)cc2)[nH]n1 (stereo not drawn) was run?
A: 0.33 mM

Q: Which IC50 does the source give for CC(CO)NC(=O)c1cc(-c2ccc(Br)cc2)[nH]n1 (stereo not drawn) here?
A: 0.88 mM

Q: With O=C(NCCOCCO)c1cc(-c2ccc(Br)cc2)[nH]n1 as the molecule, how does the IC50 read?
A: 10 mM

Q: O=C(NCCO)c1cc(-c2ccccc2)[nH]n1 was tested. Which IC50 did it give?
A: 2.8 mM

Q: How did the IC50 turn out when O=C(c1cc(-c2ccccc2)[nH]n1)N(CCO)CCO was run?
A: 1.7 mM

Q: Which IC50 does the source give for O=C(NCCCO)c1cc(-c2ccccc2)[nH]n1 here?
A: 0.54 mM

Q: For CC(O)CNC(=O)c1cc(-c2ccccc2)[nH]n1 (stereo not drawn), which IC50 is on record?
A: 0.06 mM

Q: For CC(O)CN(CC(C)O)C(=O)c1cc(-c2ccccc2)[nH]n1 (stereo not drawn), which IC50 is on record?
A: 0.01 mM

Q: Which IC50 does the source give for CC(CO)NC(=O)c1cc(-c2ccccc2)[nH]n1 (stereo not drawn) here?
A: 3 mM

Q: With O=C(NC(CO)(CO)CO)c1cc(-c2ccccc2)[nH]n1 as the molecule, how does the IC50 read?
A: 0.94 mM

Q: With COc1ccc(-c2cc(C(=O)NCCO)n[nH]2)cc1 as the molecule, how does the IC50 read?
A: 0.09 mM
